Measured values taken from patent publication US20200290950A1, “ALKAMIDE COMPOUNDS AND USES THEREOF” (NORTH CAROLINA STATE UNIVERSITY, priority 2017, published 2020).

Key:
RBL-2H3 cells [1] = assay: β-Hexosaminidase release assay (Example 3); type: cell-based, rat
Protocol: FIGS. 21A-21D. The inhibition of degranulation is dependent on the length of the alkamide fatty acid chain. RBL-2H3 cells were plated overnight, stimulated with 1 μM A23187 (FIG. 21A) or 5 ng/mL DNP-BSA (FIG. 21B) for 1 h in the absence or presence of each compound. Graphs display the mean percent β-hex release. Data are presented as the mean of 4 experiments. Percent inhibition of degranulation of A23187 (FIG. 21C) or DNP-BSA (FIG. 21D) using data from A and B, respectively. *P<0.05, **P<0.01, ***P<0.001, one-way ANOVA with Dunnett's post hoc test compared to vehicle (A, B) or A15 (C, D).
RBL-2H3 cells (1.0×10^5 cells) were incubated with or without 0.1 μg/mL of IgE-DNP overnight in a 96 well plate at 37° C. with 5% CO2. The cells were washed with Tyrode's buffer and assayed with few modifications (Kuehn, Radinger, & Gilfillan, 2010). Briefly, IgE-DNP sensitized cells were stimulated 1 hour with 5 ng/mL of DNP-BSA in the absence or presence of each compound and incubated at 37° C. with 5% CO2. For experiments using only A23187 as the stimulant, cells were washed with Tyrode's buffer and stimulated 1 hour with 1 μM A23187 in the absence or presence of each compound and incubated at 37° C. with 5% CO2. The stimulated cells were centrifuged at 1200×g for 5 minutes. The supernatant or cell lysate (30 μL) was incubated with 3.4 mg/mL of p-NAG (10 μL) for 1 hour at 37° C. The reaction was terminated by addition of 0.2 M sodium carbonate (pH 10) and the absorbance was read at OD405 nm on a BioTek Synergy HT microplate reader. The total 3-hexosaminidase released from the cell was calculated as the difference between the OD of the supernatant and blank plus the difference between the OD of the lysate and blank. The percent β-hexosaminidase released from the cell was calculated as the difference between the OD of the supernatant and blank divided by the total β-hexosaminidase released from the cell multiplied by 100: ODsupernatant−ODblank/[(ODlysate−ODblank)+(ODsupernatant−ODblank)]*100.

RBL-2H3 cells [2] = assay: Calcium assay, Fluo-4 (Example 3); type: cell-based, rat
Protocol: FIGS. 22A-22D. The alkamide fatty acid is necessary for inhibition of calcium influx. RBL-2H3 cells were plated overnight, incubated with Fluo-4 AM for 1 h, stimulated by 1 μM A23187 (FIG. 22A) or 5 ng/mL DNP-BSA (FIG. 22B) in the absence or presence of each alkamide, and fluorescence was read for 2 mins every 5 secs. Data are presented as the mean change in RFU of 4 experiments. Percent inhibition of calcium influx was calculated for A23187 (FIG. 22C) and DNP-BSA (FIG. 22D) stimulated cells at 2 mins. *P<0.05, **P<0.01, and ***P<0.001 one-way ANOVA with Dunnett's post hoc test compared to A15.
RBL-2H3 cells (1.0×10^5 cells) were incubated overnight in a 96 well black-wall clear bottom plate with or without IgE-DNP (0.1 μg/mL) at 37° C. with 5% CO2. The assay was performed using the Fluo-4 Direct™ Calcium Assay Kit according to the manufacturer's instruction. Briefly, cells were incubated with the Fluo-4 Direct calcium reagent loading solution for 30 minutes at 37° C. with 5% CO2 then 30 mins at room temperature. Prior to stimulation, the well baseline fluorescence was measured every 5 seconds over 1 minute using a BioTek Synergy HT microplate reader with 485/20 nm excitation and 528/20 nm emission filters. Cells were stimulated with 1 μM A23187 or 5 ng/mL DNP (IgE-DNP) in the absence or presence of each compound, and the fluorescence was measured every 5 seconds over 2 minutes. The change in fluorescence (ΔRT) was calculated as the sample fluorescence minus the baseline fluorescence for each well.

RBL-2H3 cells [3] = assay: TNF-α ELISA, 18 hrs (Example 3); type: cell-based, rat; conditions: 1 μM A23187, 18 hours
Protocol: FIGS. 25A-25B. […] RBL-2H3 cells were plated overnight and stimulated with 1 μM A23187 in the absence or presence of each alkamide for 18 h. Culture supernatants were analyzed for TNF-α levels by ELISA and experiments were performed in triplicate (FIG. 25A). Percent inhibition of TNF-α secretion for each alkamide listed in FIG. 25B. *P<0.05, **P<0.01, ***P<0.001, one-way ANOVA with Dunnett's post hoc test compared to vehicle (FIG. 25A) or A15 (FIG. 25B).
RBL-2H3 cells (1.0×10^5 cells) were incubated overnight in a 24 well plate at 37° C. with 5% CO2. Cells were washed with 1×PBS and stimulated with 1 μM A23187 for 18 hrs in the absence or presence of each compound. The cells were centrifuged (1200×g, 5 min) and the supernatants were collected. The concentration of TNF-α in the supernatants were determined using the TNF-α ELISA kit.

RAW 264.7 cells = conditions: LPS-stimulated RAW 264.7 cells, literature; cited from earlier work
RBL-2H3 cells [4] = assay: Fluo-4 calcium assay, RBL-2H3 cells (Example 1); type: cell-based, rat; conditions: RBL-2H3 cells, 1 μM A23187, microscopy, n=5 fields
Protocol: FIGS. 3A-3H. A15 inhibits calcium influx in RBL-2H3 cells and BMMCs. RBL-2H3 cells (FIGS. 3A-3D) and BMMCs (FIGS. 3E-3H) were plated and incubated overnight prior to treatments. For DNP-BSA treatments, overnight incubation also included 1 μg/mL IgE anti-DNP. Prior to stimulation, cells were washed and loaded with the fluorescent, calcium-sensitive dye fluo-4 AM using the Fluo-4 AM Direct™ Calcium Assay Kit and fluorescence was measured on a microplate reader. Calcium influx was triggered in all experiments using either 1 μM A23187 or 50 ng/mL DNP-BSA, as indicated. Bar graphs represent the means±SEM of the Δ in RFU's at 1 min post-A23187- or DNP-BSA-stimulation from 3 independent experiments (FIGS. 3B, 3D, 3F, 3H). Statistical analysis was performed using a one-way ANOVA with Dunnett's post-hoc test, *p<0.05, **p<0.01, ***p<0.001.
FIG. 9. A15 inhibits calcium influx in RBL-2H3 cells. Prior to stimulation, cells were washed and loaded with the fluorescent, calcium-sensitive dye fluo-4 AM using the Fluo-4 AM Direct™ Calcium Assay Kit. Cells were treated with 100 μM A15 (D, E, F), 0.25% ethanol only (vehicle) (A, B, C), 1 μM A23187 (G, H, I), and 100 μM A15 in combination with 1 μM A23187 (J, K, L) as indicated. Images were acquired at 30, 60, and 120 seconds, post-stimulation. Images are representative of several experiments.
RBL-2H3, BMMC, RAW 264.7, or Jurkat cells were plated in clear-bottom, black, 96-well plates (BioExpress, Kaysville, Utah) and incubated overnight with media only or media containing IgE anti-DNP. Cells were loaded with the calcium-sensitive dye fluo-4 AM using the Fluo-4 Direct™ Calcium Assay Kit (Thermo Fisher Scientific) according to the manufacturer's instructions by incubating at 37° C. for 30 min followed by 30 min at room temperature. Prior to stimulation, baseline fluorescent readings were measured from triplicate wells in 5 s intervals for 1 min using a Synergy HT microplate reader with 485/20 nm excitation and 528/20 nm emission filters. Cells were then treated with either 1 μM A23187 or 50 ng/mL DNP-BSA prepared in calcium- and magnesium-containing or calcium- and magnesium-free HBSS with 20 mM HEPES, and fluorescence was measured in 10 s intervals for 2 min. The final concentration of ethanol was 0.25% in these assays. The average baseline fluorescence of each well was subtracted from the stimulated fluorescent values to calculate the change (Δ) in RFU's and graphed as shown.
Cells loaded with fluo-4 were treated and observed with an Axioskop 2 microscope (Zeiss, Oberkochen, Germany) using a fluorescent illuminator HXP-120 light source and images were acquired at 30, 60, or 120 sec after stimulation with a AxioCam MRc5 camera (Zeiss) and AxioVision software (Zeiss).

[5] = biological target: cannabinoid type 2 receptor (CB2) (Homo sapiens, UniProt P34972); conditions: Raduner et al., 2006; cited from earlier work
Chain of cannabinoid type 2 receptor (CB2) (P34972 whole entry, species assumed): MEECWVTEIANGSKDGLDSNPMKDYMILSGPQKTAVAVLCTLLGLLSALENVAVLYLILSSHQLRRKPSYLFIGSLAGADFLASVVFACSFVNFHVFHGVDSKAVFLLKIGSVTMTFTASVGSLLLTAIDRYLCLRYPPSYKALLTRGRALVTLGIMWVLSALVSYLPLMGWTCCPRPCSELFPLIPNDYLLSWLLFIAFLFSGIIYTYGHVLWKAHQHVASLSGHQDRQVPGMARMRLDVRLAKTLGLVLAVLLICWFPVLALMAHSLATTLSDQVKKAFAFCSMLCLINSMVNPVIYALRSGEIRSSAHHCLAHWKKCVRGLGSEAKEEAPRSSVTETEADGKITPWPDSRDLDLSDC

Structure (SMILES) | percent inhibition of degranulation (RBL-2H3 cells [1]; 5 ng/mL DNP-BSA, 1 hour) [%] | percent inhibition of degranulation (RBL-2H3 cells [1]; 1 μM A23187, 1 hour) [%] | percent inhibition of calcium influx (RBL-2H3 cells [2]; 5 ng/mL DNP-BSA, at 2 minutes) [%] | percent inhibition of TNF-α secretion (RBL-2H3 cells [3]) [%] | other results
CCCCCCCCCC(=O)NCC(C)C [YM8-86, N-Isobutyldecanamide] | 46 | 59 | 40 | 50 | percent inhibition of calcium influx (RBL-2H3 cells [2]; 1 μM A23187, at 2 minutes): 92%
CCCCCCCCCCCC(=O)NCC(C)C [YM5-27, N-Isobutyldodecanamide] | 33 | 40 | 65 | 76 | percent inhibition of calcium influx (RBL-2H3 cells [2]; 1 μM A23187, at 2 minutes): 79%; TNF-α production (RAW 264.7 cells): best inhibitors
CNc1ccc2oc(C[C@H]3O[C@@]4(CC[C@H]3C)O[C@H]([C@H](C)C(=O)c3ccc[nH]3)[C@H](C)C[C@H]4C)nc2c1C(=O)O [A23187, reference compound] | – | – | – | – | increase in fluorescence (pixel intensity) (RBL-2H3 cells [4]): 158.4%
CCN(CC)CCCCCCCCOC(=O)c1cc(OC)c(OC)c(OC)c1 [TMB-8, 3,4,5-trimethoxybenzoic acid 8-(diethylamino) octyl ester, reference compound] | – | – | – | – | β-hex release (RBL-2H3 cells [1]; 5 ng/mL DNP-BSA, 1 h): also inhibited; β-hex release (RBL-2H3 cells [1]; 1 μM A23187, 1 h): significantly inhibited β-hex release; calcium response (Fluo-4 fluorescence over 2 min) (RBL-2H3 cells [2]; 5 ng/mL DNP-BSA): decreased rate of calcium entering the cytosol; calcium response (Fluo-4 fluorescence over 2 min) (RBL-2H3 cells [2]; 1 μM A23187): decreased rate of calcium entering the cytosol
C/C=C\C=C/CC/C=C/C=C/C(=O)NCC(C)C [A11a/b, dodeca-2E,4E,8Z,10Z(E)-tetraenoic acid isobutylamide, reference compound] | – | – | – | – | binding to CB2 [5]: shown to bind; TNF-α production (RAW 264.7 cells): reduced TNF-α production
CCCCCC(=O)NCC(C)C [YM5-47, N-Isobutylhexanamide] | 36 | 51 | 38 | 47 | –
CCCC(=O)NCC(C)C [YM8-87, N-Isobutylbutyramide] | 12 | 11 | – | – | rank as inhibitor of calcium influx (RBL-2H3 cells [2]; A23187 and DNP-BSA stimulation): least effective inhibitor of calcium influx
